Measurements taken from paper PMC7248707 (Molecules, 2020).

What was measured:
rat MOR = molecular target: rat MOR; design: method as in PMID 2537427; settings: rat brain tissue; cited from earlier work
[1] = cited from earlier work
human MOR [2] = molecular target: T1, human MOR (Homo sapiens, UniProt P35372)
human MOR [3] = molecular target: T1, human MOR; remark: listed apart in the source
MOR = settings: read-out: IC50 in the GPI bioassay; cited from earlier work

T1 sequence (P35372 whole entry): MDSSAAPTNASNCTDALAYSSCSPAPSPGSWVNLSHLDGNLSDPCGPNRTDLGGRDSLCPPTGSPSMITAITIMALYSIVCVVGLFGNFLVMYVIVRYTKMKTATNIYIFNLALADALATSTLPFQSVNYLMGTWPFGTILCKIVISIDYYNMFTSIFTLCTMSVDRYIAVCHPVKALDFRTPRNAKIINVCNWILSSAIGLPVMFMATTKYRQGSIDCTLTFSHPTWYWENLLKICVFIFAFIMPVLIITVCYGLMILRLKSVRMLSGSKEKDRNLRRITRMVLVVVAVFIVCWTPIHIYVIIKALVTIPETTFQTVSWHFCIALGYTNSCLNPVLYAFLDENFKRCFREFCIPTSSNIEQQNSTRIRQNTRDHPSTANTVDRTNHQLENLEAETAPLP

SMILES	Ki (rat MOR)	BBB crossing / CNS entry [1]	better MOR affinity than DAMGO (human MOR [2]; relative to DAMGO)	increase in MOR affinity versus [Dmt^1]DALDA (human MOR [2]; relative to [Dmt^1]DALDA)	enhanced MOR agonist potency versus [Dmt^1]DALDA (human MOR [3])	EC50 (human MOR [3]; read-out: Agonist Activity EC50)	IC50 (MOR)
NCCCC[C@H](NC(=O)[C@H](Cc1ccccc1)NC(=O)[C@@H](CCCN=C(N)N)NC(=O)[C@@H](N)Cc1ccc(O)cc1)C(N)=O [DALDA, H-Tyr-D-Arg-Phe-Lys-NH2]	1.69 nM	does not cross the BBB					
Cc1cc(O)cc(C)c1C[C@H](N)C(=O)N[C@H](CCCNC(=N)N)C(=O)N[C@H]1Cc2ccccc2CN(CCC(N)=O)C1=O [KGOP01]		can enter the CNS	13 fold	ca. 2 fold	5 fold	0.1 ± 0.02 nM	0.8 nM
